Reference: PubChem BioAssay AID248 (DTP/NCI, 2004)
Inconclusive results and toxic doses are left out. Cut-off read from the data, not from the text of the source: active = T/C of 150% or more; inactive = T/C below 125%.

Tested on: L1210 leukemia ip in BDF1 mice, survival T/C
Assay: NCI In Vivo Anticancer Drug Screen. Data for tumor model L1210 Leukemia (intraperitoneal) in B6D2F1 (BDF1) mice
Details: endpoint: mean survival time, higher = longer survival
In short: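 Each compound was tested against a transplantable tumor grown in mice. The endpoint was survival, with treated animals benchmarked against vehicle controls as a simple ratio.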

[1] = dose: 100.0 mg/kg/injection, schedule: Q04DX003 (ip), vehicle: saline with Tween-80
[2] = dose: 200.0 mg/kg/injection, schedule: Q04DX003 (ip), vehicle: saline with Tween-80
[3] = dose: 400.0 mg/kg/injection, schedule: Q04DX003 (ip), vehicle: saline with Tween-80
[4] = dose: 100.0 mg/kg/injection, schedule: Q01DX009 (ip), vehicle: saline
[5] = dose: 200.0 mg/kg/injection, schedule: Q01DX009 (ip), vehicle: saline
[6] = dose: 400.0 mg/kg/injection, schedule: Q01DX009 (ip), vehicle: saline
[7] = dose: 100.0 mg/kg/injection, schedule: Q04DX003 (ip), vehicle: Klucel (hydroxypropylcellulose) (HPC)
[8] = dose: 200.0 mg/kg/injection, schedule: Q04DX003 (ip), vehicle: Klucel (hydroxypropylcellulose) (HPC)
[9] = dose: 400.0 mg/kg/injection, schedule: Q04DX003 (ip), vehicle: Klucel (hydroxypropylcellulose) (HPC)
[10] = dose: 100.0 mg/kg/injection, schedule: Q01DX001 (ip), vehicle: carboxymethylcellulose (CMC)
[11] = dose: 200.0 mg/kg/injection, schedule: Q01DX001 (ip), vehicle: carboxymethylcellulose (CMC)
[12] = dose: 400.0 mg/kg/injection, schedule: Q01DX001 (ip), vehicle: carboxymethylcellulose (CMC)
[13] = dose: 100.0 mg/kg/injection, schedule: Q01DX009 (ip), vehicle: Klucel (hydroxypropylcellulose) (HPC)
[14] = dose: 200.0 mg/kg/injection, schedule: Q01DX009 (ip), vehicle: Klucel (hydroxypropylcellulose) (HPC)
[15] = dose: 400.0 mg/kg/injection, schedule: Q01DX009 (ip), vehicle: Klucel (hydroxypropylcellulose) (HPC)

Measured: T/C

C/C(=N\NC(=S)Nc1cc(I)ccc1C)c1cc([N+](=O)[O-])c(O)cc1O
inactive: dose: 12.5 mg/kg/injection, schedule: Q04DX002 (ip), vehicle: Klucel (hydroxypropylcellulose) (HPC) 102 % of control | dose: 25.0 mg/kg/injection, schedule: Q04DX002 (ip), vehicle: Klucel (hydroxypropylcellulose) (HPC) 97 % of control | dose: 50.0 mg/kg/injection, schedule: Q04DX002 (ip), vehicle: Klucel (hydroxypropylcellulose) (HPC) 105 % of control

N#CC(C#N)=NNc1ccc(S(=O)(=O)c2ccc(NN=C(C#N)C#N)cc2)cc1
inactive: [1] 103 % of control | [2] 97 % of control | [3] 97 % of control

CCN(CC)C(=O)NC1CCCN1C (configuration not stated)
inactive: [4] 96 % of control | dose: 100.0 mg/kg/injection, schedule: Q04DX003 (ip), vehicle: saline 97 % of control | [5] 101 % of control | dose: 200.0 mg/kg/injection, schedule: Q04DX003 (ip), vehicle: saline 107 % of control | [6] 109 % of control | dose: 400.0 mg/kg/injection, schedule: Q04DX003 (ip), vehicle: saline 103 % of control

CS(=O)(=O)Oc1ccccc1N(S(C)(=O)=O)S(C)(=O)=O
inactive: dose: 100.0 mg/kg/injection, schedule: Q01DX001 (ip), vehicle: Klucel (hydroxypropylcellulose) (HPC) 107 % of control | [7] 107 % of control | dose: 200.0 mg/kg/injection, schedule: Q01DX001 (ip), vehicle: Klucel (hydroxypropylcellulose) (HPC) 110 % of control | [8] 107 % of control | dose: 400.0 mg/kg/injection, schedule: Q01DX001 (ip), vehicle: Klucel (hydroxypropylcellulose) (HPC) 104 % of control | [9] 102 % of control

Cc1cc(-c2ccc(N3C(=O)C=CC3=O)c(C)c2)ccc1N1C(=O)C=CC1=O
inactive: [7] 105 % of control | [8] 100 % of control

C=CCOc1cccc(C(C)(C)C)c1
inactive: dose: 75.0 mg/kg/injection, schedule: Q04DX003 (ip), vehicle: saline with Tween-80 103 % of control | dose: 150.0 mg/kg/injection, schedule: Q04DX003 (ip), vehicle: saline with Tween-80 101 % of control | dose: 300.0 mg/kg/injection, schedule: Q04DX003 (ip), vehicle: saline with Tween-80 92 % of control

COc1cc(C(=O)c2cocc2C(=O)c2ccc3c(c2)OCO3)cc(OC)c1OC
inactive: dose: 50.0 mg/kg/injection, schedule: Q01DX009 (ip), vehicle: acetone 110 % of control | dose: 100.0 mg/kg/injection, schedule: Q01DX009 (ip), vehicle: acetone 94 % of control | dose: 200.0 mg/kg/injection, schedule: Q01DX009 (ip), vehicle: acetone 112 % of control | dose: 400.0 mg/kg/injection, schedule: Q01DX009 (ip), vehicle: acetone 110 % of control

Cc1ccc(NC(=O)Nc2ccc(Cl)cc2)c(C)c1
inactive: [10] 101 % of control | [11] 106 % of control | [12] 98 % of control

O=C(CCl)N1CC2CCC(CC2)C1
inactive: [7] 97 % of control

CC(C)CC(=O)OC1CCCCC1
inactive: [1] 106 % of control | [2] 101 % of control | [3] 95 % of control

CCOC(=O)c1sc(NC(C)=O)c(C(=O)OCC)c1C
inactive: [4] 96 % of control | [1] 98 % of control | [5] 101 % of control | [2] 114 % of control | [6] 101 % of control | [3] 96 % of control

O=S(=O)(Nc1cc(Cl)c(NS(=O)(=O)c2ccccc2)c2ccccc12)c1ccccc1
inactive: dose: 75.0 mg/kg/injection, schedule: Q01DX001 (ip), vehicle: Klucel (hydroxypropylcellulose) (HPC) 92 % of control | dose: 75.0 mg/kg/injection, schedule: Q01DX009 (ip), vehicle: Klucel (hydroxypropylcellulose) (HPC) 92 % of control | dose: 150.0 mg/kg/injection, schedule: Q01DX001 (ip), vehicle: Klucel (hydroxypropylcellulose) (HPC) 101 % of control | dose: 150.0 mg/kg/injection, schedule: Q01DX009 (ip), vehicle: Klucel (hydroxypropylcellulose) (HPC) 94 % of control | dose: 300.0 mg/kg/injection, schedule: Q01DX001 (ip), vehicle: Klucel (hydroxypropylcellulose) (HPC) 95 % of control

O=C(O)c1cccc2c1C(=O)c1c(Cl)cccc1C2=O
inactive: dose: 100.0 mg/kg/injection, schedule: Q04DX002 (ip), vehicle: Klucel (hydroxypropylcellulose) (HPC) 99 % of control | dose: 200.0 mg/kg/injection, schedule: Q04DX002 (ip), vehicle: Klucel (hydroxypropylcellulose) (HPC) 99 % of control | dose: 400.0 mg/kg/injection, schedule: Q04DX002 (ip), vehicle: Klucel (hydroxypropylcellulose) (HPC) 99 % of control

CCOC(=O)c1ccc(Nc2nnc(-c3c(OC)cc(OC)cc3OC)s2)cc1
inactive: dose: 100.0 mg/kg/injection, schedule: Q04DX002 (ip), vehicle: saline with Tween-80 93 % of control | dose: 200.0 mg/kg/injection, schedule: Q04DX002 (ip), vehicle: saline with Tween-80 104 % of control | dose: 400.0 mg/kg/injection, schedule: Q04DX002 (ip), vehicle: saline with Tween-80 101 % of control

COc1ccc(C(=O)OCCN(CCN(CCOC(=O)c2ccc(OC)cc2)C(=O)c2ccc(OC)cc2)C(=O)c2ccc(OC)cc2)cc1
inactive: dose: 25.0 mg/kg/injection, schedule: Q01DX009 (ip), vehicle: Klucel (hydroxypropylcellulose) (HPC) 88 % of control | dose: 50.0 mg/kg/injection, schedule: Q01DX009 (ip), vehicle: Klucel (hydroxypropylcellulose) (HPC) 96 % of control | [13] 89 % of control | [14] 94 % of control | [15] 105 % of control

COc1ccc(/C=C/c2cnccn2)cc1OC
inactive: [13] 101 % of control | [14] 101 % of control | [15] 106 % of control

F[Si](c1ccccc1)(c1ccccc1)c1ccccc1
inactive: dose: 37.5 mg/kg/injection, schedule: Q01DX009 (ip), vehicle: saline 88 % of control | dose: 75.0 mg/kg/injection, schedule: Q01DX001 (ip), vehicle: saline 93 % of control | dose: 75.0 mg/kg/injection, schedule: Q01DX009 (ip), vehicle: saline 95 % of control | dose: 150.0 mg/kg/injection, schedule: Q01DX001 (ip), vehicle: saline 102 % of control | dose: 150.0 mg/kg/injection, schedule: Q01DX009 (ip), vehicle: saline 95 % of control | dose: 300.0 mg/kg/injection, schedule: Q01DX001 (ip), vehicle: saline 93 % of control

O=C1c2ccccc2C(=O)N1CC(=O)N(C(=O)NC1CCCCC1)C1CCCCC1
inactive: dose: 100.0 mg/kg/injection, schedule: Q01DX001 (ip), vehicle: water 109 % of control | dose: 100.0 mg/kg/injection, schedule: Q01DX009 (ip), vehicle: water 103 % of control | dose: 100.0 mg/kg/injection, schedule: Q04DX003 (ip), vehicle: water 94 % of control | dose: 200.0 mg/kg/injection, schedule: Q01DX001 (ip), vehicle: water 104 % of control | dose: 200.0 mg/kg/injection, schedule: Q01DX009 (ip), vehicle: water 95 % of control | dose: 200.0 mg/kg/injection, schedule: Q04DX003 (ip), vehicle: water 96 % of control | dose: 400.0 mg/kg/injection, schedule: Q01DX001 (ip), vehicle: water 98 % of control | dose: 400.0 mg/kg/injection, schedule: Q01DX009 (ip), vehicle: water 103 % of control | dose: 400.0 mg/kg/injection, schedule: Q04DX003 (ip), vehicle: water 97 % of control

Cc1cc(N(CCCOS(C)(=O)=O)CCCOS(C)(=O)=O)ccc1C=Nc1ccc(-c2nc(Cc3ccccc3)sc2C)cc1
inactive: dose: 100.0 mg/kg/injection, schedule: Q01DX009 (ip), vehicle: saline with Tween-80 96 % of control | dose: 200.0 mg/kg/injection, schedule: Q01DX009 (ip), vehicle: saline with Tween-80 98 % of control

OC(c1ccccc1)(c1ccccc1)c1ccccc1CNc1ccccc1
inactive: dose: 50.0 mg/kg/injection, schedule: Q01DX001 (ip), vehicle: carboxymethylcellulose (CMC) 102 % of control | [10] 88 % of control | [11] 102 % of control | [12] 96 % of control

CCOC(=O)c1c(N)sc(C)c1C
inactive: [7] 102 % of control | [8] 94 % of control | [9] 97 % of control

Nc1nc2c(ncn2-c2cccc(-c3ccccc3)c2)c(=O)[nH]1
inactive: dose: 25.0 mg/kg/injection, schedule: Q04DX003 (ip), vehicle: saline with Tween-80 100 % of control | dose: 50.0 mg/kg/injection, schedule: Q04DX003 (ip), vehicle: saline with Tween-80 102 % of control | [1] 100 % of control | [2] 87 % of control
